Data on three molecules can be found in US20100286082A1, “RIBOSWITCHES AND METHODS AND COMPOSITIONS FOR USE OF AND WITH RIBOSWITCHES” (Yale University, priority 2007, published 2010).

Experiment [1] relates to 17-90 RNA. Put plainly: Equilibrium dialysis of 3H-preQ1 with 17-90 RNA. It counts as binding, Streptococcus pneumoniae R6. The conditions noted are these: excess unlabeled compound added to chamber a after equilibration. Here is the method:
Equilibrium dialysis experiments were preformed with ^3H-preQ1 and the 17-90 RNA construct to confirm ligand binding and the specificity of molecular recognition using a different methodology. For equilibrium dialysis, ^3H-preQ1 was added to chamber a of an equilibrium dialysis apparatus, and excess RNA is added to chamber b. The two chambers are separated by a 5,000 Dalton molecular weight cut off dialysis membrane (FIG. 18A). The solutions were allowed to equilibrate and the fraction of tritium in each chamber was subsequently measured by liquid scintillation counting. […] When ^3H-preQ1 ([…]) is equilibrated without RNA, or with an RNA that lacks the ability to form the P3 stem (1-81 RNA), the ^3H label distributes evenly (b/a ˜1). […]
A 30 μl mixture containing 50 mM Tris-HCl (pH 8.3 at 23° C.), 20 mM MgCl2, 100 mM KCl, and 1 μM of ^3H-labeled preQ1 was placed in one chamber of a DispoEquilibrium Dialyzer (ED-1, Harvard Bioscience) and the same volume containing the same constituents minus the ^3H-labeled preQ1 was added to the opposing side. When noted, the latter solution also contained either 5 μM 17-90 RNA or 5 μM 1-81 RNA. After equilibrating for 14 hours, a 5 μl aliquot was removed from each side of the apparatus to determine the distribution of ^3H-label in the two chambers by liquid scintillation counting. […]

For experiment [2], the system named is 17-90 RNA. Put plainly: In-line probing of 17-90 RNA (preQ1-II aptamer). It counts as binding, Streptococcus pneumoniae R6. The following applies: compound concentrations up to 1 mM.
In experiment [3] the test system is 17-90 RNA mutant U41. The experiment is described as follows: In-line probing of mutant (U41) 17-90 RNA. The conditions noted are these: compared with wild type. It counts as binding, Streptococcus pneumoniae R6.
Experiment [4] addresses 132 Sc RNA (SAM-IV riboswitch). The experiment is described as follows: In-line probing of 132 Sc RNA (SAM-IV). It is filed as binding, Streptomyces coelicolor. The source says:
DNA corresponding to the aptamer in the pEZ35 plasmid (above) was amplified by PCR with primers 5′-[…]

Experiment [5] concerns the target SAM-I riboswitch 124 yitJ. The conditions noted are these: cited from earlier work.
Experiment [6] concerns SAM-II aptamer 156 metA. The conditions noted are these: representative of SAM-II aptamers, Lim et al., 2006b; cited from earlier work.
The target of experiment [7] is 68 metH RNA. Put plainly: In-line probing of 68 metH RNA (SAH aptamer). It counts as binding, Dechloromonas aromatica. The conditions noted are these: in-line probing; read-out: apparent dissociation constant KD. As for the experimental part: iii. In-Line Probing Analysis In-line probing assays were carried out essentially as previously described (Soukup and Breaker, 1999). 5′^32P-labeled RNAs were incubated at room temperature for approximately 40 h in 10 μl volumes containing 50 mM Tris-HCl (pH 8.3 at 25° C.), 20 mM MgCl2, 100 mM KCl, and included test compounds at the concentrations indicated. Spontaneous cleavage products were separated by denaturing 10% PAGE, visualized using a Phosphorlmager (Molecular Dynamics), and quantified using SAFA v1.1 software (Das et al., 2005). The amount of RNA cleaved at each nucleotide position was obtained from SAFA analysis, which automatically determines reference nucleotide positions with invariant levels of spontaneous cleavage to correct for different amounts loaded in each lane. Individual band intensities at each modulated site were summed and normalized to obtain values for the fraction of RNA that was structurally modulated, assuming that there was no modulation in the absence of ligand and maximal modulation in the presence of the highest concentration of ligand. Values for the apparent dissociation constant (KD) were determined by fitting the plot of the fraction modulated (F), versus the ligand concentration, [L], at all three indicated modulation sites to the equation F [L]/([L]+KD) using SigmaPlot 9 software (Systat Software, Inc.).

Experiment [8] concerns the target SAM-I riboswitch 124 yitJ. The experiment is described as follows: SAM-I riboswitch binding (literature). The following applies: ratio of the KD for the compound to that for SAM.
The subject of experiment [9] is SAH riboswitch of the ahcY 5′-UTR fused to lacZ (WT reporter strain). The experiment is described as follows: In vivo reporter gene expression, ahcY 5′ UTR-lacZ translational fusion. It is filed as cell-based, Pseudomonas syringae. The conditions noted are these: Vogel-Bonner minimal medium supplemented with 250 μM compound. As for the experimental part:
An in vivo gene control assay was conducted wherein the IGR encompassing the 5′ UTR of the ahcY gene in P. syringae was fused immediately upstream of a lacZ coding sequence. This construct retained the start codon of the ahcY gene, which was fused in frame with the reporter gene ORF. The resulting translational fusion vector was transformed into P. syringae to produce the wild-type (WT) reporter strain. Similarly, a series of mutant reporter strains were constructed that are expected to disrupt or restore aptamer function (FIG. 13A). Transformed P. syringae strains subsequently were grown in either King's medium B (rich) or Vogel-Bonner medium (minimal), and the reporter expression levels of the mutant constructs were compared to the results from the WT reporter construct (FIG. 13B).
Nucleotides ˜367 to +6 relative to the predicted ahcY translation start site (GenBank accession: NC—004578.1; nucleotides 5,771,072 to 5,771,444) were amplified as a BamHI-HindIII fragment by whole-cell PCR of Pseudomonas syringae pv. tomato str. DC3000. The PCR product was cloned into the translational fusion vector pRA301 (Akakura and Winans, 2002) immediately upstream of the lacZ reporter gene. This reporter vector is stably maintained in pseudomonas since it harbors the origin of replication rep and stability region sta derived from the pseudomonas aeruginosa vector pVS1 (Itoh et al., 1984). […]
Background: In a reporter assay the amount or activity of a reporter protein is the signal.

Take `Nc1nc2nc[nH]c2c(=O)[nH]1` [guanine]: in experiment [1], the “competition with 3H-preQ1 (distribution of 3H label)” value was “has no effect on the distribution of ^3H”.
As to `Nc1nc(N)c2[nH]cnc2n1` [DAP, 2,6-diaminopurine], the “binding by 17-90 RNA” value in experiment [2] is “near identical KD values”. For the same molecule, the “binding by the U41 mutant” value in experiment [3] is reported as “essentially the same affinity as wild type”.
Regarding `Nc1ncnc2c1ncn2[C@@H]1O[C@H](CSCC[C@H](N)C(=O)O)[C@@H](O)[C@H]1O` [SAH, S-adenosylhomocysteine], the Kd in experiment [4] (in-line probing, 132 Sc RNA, read-out: apparent dissociation constant (KD)) is 20000 nM; in [5] (calculated previously (Lim et al. 2006), read-out: KD [compound] (nM) SAM-I), 400 nM; in [7], approximately 20 nM. In addition, the “KD [compound]/ KD [SAM] SAM-IV” value in [4] (ratio of the KD for the compound to that for SAM) amounted to 133. Also, the “discrimination against SAH” value in [5] (representative of SAM-I aptamers, Lim et al., 2006b) was approximately 80 fold; in experiment [6], “more than 1000 fold”. The “KD [compound]/ KD [SAM] SAM-I” value in experiment [8] is reported as 80. In addition, the riboswitch-mediated reporter expression entry in [9] was “only slightly increases reporter expression”.
